The numbers were not newly measured in paper PMC13291975, “Brighter NIR Bioluminescence System for Mammalian Cell Bioimaging Based on Engineered Railroadworm Luciferase and 6′-Aminoluciferin Analogues” (Chemical & Biomedical Imaging, 2026), which cites them from elsewhere.

The target of the series is T1, Phrixotrix hirtus railroadworm red-emitting luciferase (PxRE; RE-WT) (Phrixothrix hirtus, UniProt Q9U4U7).
T1 construct: N-terminal His-tag, pCold vector, expressed in E. coli BL21-DE3, Ni-agarose purified
T1 sequence (Q9U4U7 entry or part of it): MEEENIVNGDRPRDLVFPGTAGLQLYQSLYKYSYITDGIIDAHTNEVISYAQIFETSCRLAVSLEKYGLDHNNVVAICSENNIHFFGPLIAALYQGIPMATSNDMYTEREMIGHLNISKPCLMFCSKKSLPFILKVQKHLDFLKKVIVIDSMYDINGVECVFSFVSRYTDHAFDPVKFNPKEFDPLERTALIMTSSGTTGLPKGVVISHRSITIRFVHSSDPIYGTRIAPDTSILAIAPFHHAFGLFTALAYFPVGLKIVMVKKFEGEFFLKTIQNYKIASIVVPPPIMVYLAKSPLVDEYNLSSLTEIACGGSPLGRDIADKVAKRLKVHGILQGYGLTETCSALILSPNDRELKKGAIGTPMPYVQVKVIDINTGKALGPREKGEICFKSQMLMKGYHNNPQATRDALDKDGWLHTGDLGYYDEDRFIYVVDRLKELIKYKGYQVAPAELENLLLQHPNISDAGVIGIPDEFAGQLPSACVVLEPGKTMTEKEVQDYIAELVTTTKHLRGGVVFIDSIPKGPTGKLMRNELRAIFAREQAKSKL
Briefly: bioluminescence peak intensity, Lineweaver-Burk. Particulars: read-out: K M LH2; ATP/MgSO4, 0.1 M Tris-HCl pH 8.0; kcat in relative luminometer counts; error not given, value possibly from the authors' earlier work; the text says 'Previously, we showed'. It is filed as biochemical. An excerpt: bioluminescence peak intensity, Lineweaver-Burk on Phrixotrix hirtus railroadworm red-emitting luciferase (PxRE; RE-WT)

Turning to `O=C(O)[C@H]1CSC(c2nc3ccc(O)cc3s2)=N1` [LH2, D-luciferin], the Km is 7 µM.
